These are literature values, as cited in patent US20170119783A1, “Method for Treating Cognitive Impairment Associated With Neurodegenerative Disorders” (priority 2014, published 2017).

Structures are written as SMILES. Read-outs that look alike come from different tables or passages of the source.

The subject of series [1] is Ehrlich ascots tumor cells.
For series [2] the following is noted: within the group of artemisinin analogs.
For a further series, the system named is cancer cells. The conditions noted are these: more effective for hepatoma and embryonic lung cells than human gastric cancer cells.
The next series deals with nucleic acid synthesis. The conditions noted are these: relative to artemisinin.

For `C[C@@H]1[C@H](OCc2ccc(C(=O)O)cc2)O[C@@H]2O[C@@]3(C)CC[C@@H]4[C@@H](C)CC[C@@H]1[C@]24OO3` [Artelinic acid], the “water solubility (in words)” value is “most water-soluble”. Further, the “efficacy against Ehrlich ascots tumor cells (in words)” value (from here on “efficacy”) in series [1] is on record as “efficacy against Ehrlich ascots tumor cells”. Also, the “stability (in words)” value in series [2] is listed as “most stable”. Also, where the note is “listed as artelinic acid”, the “water solubility (in words)” value was “higher solubility in water”. In the case of `CO[C@H]1O[C@@H]2O[C@@]3(C)CC[C@H]4[C@H](C)CC[C@@H]([C@H]1C)[C@@]24OO3` [Artemether], the “water solubility (in words)” value is “higher solubility in water”. For `C[C@@H]1CC[C@H]2[C@@H](C)C(=O)O[C@@H]3O[C@@]4(C)CC[C@@H]1[C@]32OO4` [Artemisinin, (3R,5aS,6R,8aS,9R,12S,12aR)-octahydro-3,6,9-trimethyl-3,12-epoxy-12H-pyr-ano[4,3-j]-1,2-benzodioxepin-10(3H)-one], the “water solubility (in words)” value is recorded as “poor water solubility”. The “efficacy” value in series [1] is “efficacy against Ehrlich ascots tumor cells”. Also, in the series on cancer cells, the “toxicity to cancer cells in vitro (in words)” value is listed as “toxic to cancer cells in vitro”.

As to `C[C@H]1[C@H](N2CCS(=O)(=O)CC2)O[C@@H]2O[C@@]3(C)CC[C@H]4[C@H](C)CC[C@@H]1[C@@]24OO3` [Artemisone], the “antimalarial activity (in words)” value in the series on Plasmodium falciparum (Haynes et al. 2006) is reported as “high antimalarial activity”.

For `C[C@H]1[C@@H](O)O[C@@H]2O[C@@]3(C)CC[C@H]4[C@H](C)CC[C@@H]1[C@@]24OO3` [Dihydroartemisinin], the “water solubility (in words)” value is “higher solubility in water”.

Consider `CCO[C@H]1O[C@@H]2O[C@@]3(C)CC[C@H]4[C@H](C)CC[C@@H]([C@H]1C)[C@@]24OO3` [arteether], for which the “water solubility (in words)” value is recorded as “higher solubility in water”. Moreover, the “ability to inhibit nucleic acid synthesis, times the activity of artemisinin” value with nucleic acid synthesis is on record as 100 times. Besides, the “efficacy” value in series [1] is “efficacy against Ehrlich ascots tumor cells”. Consider `C[C@H]1[C@H](OC(=O)CCC(=O)O)O[C@@H]2O[C@@]3(C)CC[C@H]4[C@H](C)CC[C@@H]1[C@@]24OO3` [artesunate], for which the “ability to inhibit nucleic acid synthesis, times the activity of artemisinin” value with nucleic acid synthesis is 100 times. In addition, the “antimalarial potency, times that of artemisinin” value in the series on Plasmodium falciparum (relative to artemisinin) is on record as 5.2 times.

Take `CCCOC(=O)OC1O[C@@H]2O[C@@]3(C)CC[C@H]4[C@H](C)CC[C@@H]([C@H]1C)[C@@]24OO3` (stereo partly shown) [propylcarbonate dihydroartemisinin]: the “water solubility (in words)” value was “higher solubility in water”. Further, the “ability to inhibit nucleic acid synthesis, times the activity of artemisinin” value in the series with nucleic acid synthesis is 100 times. Take `C[C@H]1[C@@H](OCc2ccc(C(=O)O)cc2)O[C@@H]2O[C@]3(C)CC[C@H]4[C@H](C)CC[C@@H]1[C@@]24OO3` [sodium artelinate]: in series [1], the “efficacy” value is “efficacy against Ehrlich ascots tumor cells”. As for `C[C@H]1[C@H](OC(=O)CCC(=O)[O-])O[C@@H]2O[C@@]3(C)CC[C@H]4[C@H](C)CC[C@@H]1[C@@]24OO3.[Na+]` [sodium artesunate], in series [1], the “efficacy” value is “efficacy against Ehrlich ascots tumor cells”.
